Values quoted from earlier work in patent US20250205258A1 (priority 2022, published 2025).

Experiments:
[1] = system: liver cancer stem cell markers CD133, CD44, and ESA; conditions: cited from earlier work
melanoma A375 cells = conditions: concentration- and time-dependent; cited from earlier work
[2] = system: ovarian cancer cells SK—OV-3; conditions: concentration- and time-dependent, EGFR/AKT/ERK signaling pathway; cited from earlier work
STAT3 signaling pathway = conditions: by inhibiting the STAT3 signaling pathway; cited from earlier work
neuroblastoma cells U87 = conditions: through both apoptosis and necrosis; cited from earlier work

## C[C@]12CC[C@H](O)C[C@H]1CC[C@@H]1[C@@H]2CC[C@]2(C)[C@@H](c3ccc(=O)oc3)CC[C@]12O [bufalin, Bufalin]
[1]
  expression of liver cancer stem cell markers CD133, CD44, and ESA: significantly inhibit
Melanoma A375 cells
  proliferation of melanoma A375 cells: inhibits the proliferation
[2]
  proliferation of ovarian cancer cells SK—OV-3: inhibit the proliferation
STAT3 signaling pathway
  tumor microenvironment-mediated angiogenesis: suppress tumor microenvironment-mediated angiogenesis
Neuroblastoma cells U87
  death of neuroblastoma cells U87: induces the death
